Read-outs that look alike come from different tables or passages of the source. Marks after values point to notes of the source that are not given here. Where no end group is shown, it is not given here.
Assays:
in vivo = conditions: male, Polish Landrace x Pietrain, pig, po, obestatin concentration in the blood plasma
middle jejunum [1] = conditions: middle jejunum strips; for EFS-evoked amplitude of contraction: 6 days, mean ± SEM
middle jejunum [2] = experiment: Spontaneous contractility of whole-thickness preparations in organ bath after 6-day enteral obestatin; assay type: in vivo, piglets (Polish Landrace x Pietrain); conditions: 6 days, middle jejunum (Fig 2)
Method: (§1) Piglets' BW was recorded every morning. […] The protein concentration in the milk formula was 20%. […] The tissues were attached to isotonic transducers (Letica Scientific Instruments, Spain) under a load of 1.0 g that were coupled with a PowerLab recording system (ADInstruments, Sydney, Australia). […] The tissues were then washed and allowed to equilibrate. […] Half of randomly selected jejunal segments were pre-treated with atropine.

duodenum = experiment: as above; assay type: in vivo, piglets (Polish Landrace x Pietrain); conditions: O15: obestatin 15 μg/kg BW intra-stomach every 8 h, 6 days; duodenal segment (Fig 2)
Method: as §1

middle jejunum [3] = experiment: ACh-stimulated or atropine-treated contractions; assay type: in vivo, piglets (Polish Landrace x Pietrain); conditions: 6 days, middle jejunum strips, mean ± SEM; for amplitude of atropine treated contractions: atropine pretreatment (ATR^-6)
Method: as §1

[4] = O10: obestatin 10 μg/kg BW intra-stomach every 8 h

FNAPFDVGIKLSGAQYQQHGRAL-NH2 [obestatin]
level at 0.5 h (in vivo; 2 ug/kg BW): 0.369 ± 0.026 ng/mL
level at 1 h (in vivo; 2 ug/kg BW): 0.37 ± 0.023 ng/mL
level at 0.5 h (in vivo; 10 ug/kg BW): 0.413 ± 0.011 ng/mL
level at 1 h (in vivo; 10 ug/kg BW): 0.475 ± 0.022 ng/mL
level at 0.5 h (in vivo; 15 ug/kg BW): 0.405 ± 0.026 ng/mL
level at 1 h (in vivo; 15 ug/kg BW): 0.45 ± 0.053 ng/mL
EFS-evoked amplitude of contraction (middle jejunum [1]; O2: obestatin 2 μg/kg BW intra-stomach every 8 h, Basal, EFS 0.5 Hz): 0.53 ± 0.26^a^c mm
EFS-evoked amplitude of contraction (middle jejunum [1]; O2: obestatin 2 μg/kg BW intra-stomach every 8 h, Basal, EFS 5 Hz): 0.70 ± 0.35^a mm
EFS-evoked amplitude of contraction (middle jejunum [1]; O2: obestatin 2 μg/kg BW intra-stomach every 8 h, Basal, EFS 50 Hz): 1.22 ± 0.59^a mm
EFS-evoked amplitude of contraction (middle jejunum [1]; O2: obestatin 2 μg/kg BW intra-stomach every 8 h, TTX 10^−6 M, EFS 0.5 Hz): 0.17 ± 0.07 mm
EFS-evoked amplitude of contraction (middle jejunum [1]; O2: obestatin 2 μg/kg BW intra-stomach every 8 h, TTX 10^−6 M, EFS 5 Hz): 0.20 ± 0.08 mm
EFS-evoked amplitude of contraction (middle jejunum [1]; O2: obestatin 2 μg/kg BW intra-stomach every 8 h, TTX 10^−6 M, EFS 50 Hz): 0.31 ± 0.17 mm
EFS-evoked amplitude of contraction (middle jejunum [1]; O10: obestatin 10 μg/kg BW intra-stomach every 8 h, Basal, EFS 0.5 Hz): 1.75 ± 0.18^a^d mm
EFS-evoked amplitude of contraction (middle jejunum [1]; O10: obestatin 10 μg/kg BW intra-stomach every 8 h, Basal, EFS 5 Hz): 1.75 ± 0.18^a^b mm
EFS-evoked amplitude of contraction (middle jejunum [1]; O10: obestatin 10 μg/kg BW intra-stomach every 8 h, Basal, EFS 50 Hz): 1.49 ± 0.30^a mm
EFS-evoked amplitude of contraction (middle jejunum [1]; O10: obestatin 10 μg/kg BW intra-stomach every 8 h, TTX 10^−6 M, EFS 0.5 Hz): 0.28 ± 0.10 mm
EFS-evoked amplitude of contraction (middle jejunum [1]; O10: obestatin 10 μg/kg BW intra-stomach every 8 h, TTX 10^−6 M, EFS 5 Hz): 0.30 ± 0.12 mm
EFS-evoked amplitude of contraction (middle jejunum [1]; O10: obestatin 10 μg/kg BW intra-stomach every 8 h, TTX 10^−6 M, EFS 50 Hz): 0.45 ± 0.15 mm
EFS-evoked amplitude of contraction (middle jejunum [1]; O15: obestatin 15 μg/kg BW intra-stomach every 8 h, Basal, EFS 0.5 Hz): 2.47 ± 0.23^b^d mm
EFS-evoked amplitude of contraction (middle jejunum [1]; O15: obestatin 15 μg/kg BW intra-stomach every 8 h, Basal, EFS 5 Hz): 2.74 ± 0.37^b mm
EFS-evoked amplitude of contraction (middle jejunum [1]; O15: obestatin 15 μg/kg BW intra-stomach every 8 h, Basal, EFS 50 Hz): 3.76 ± 0.29^b mm
EFS-evoked amplitude of contraction (middle jejunum [1]; O15: obestatin 15 μg/kg BW intra-stomach every 8 h, TTX 10^−6 M, EFS 0.5 Hz): 0.46 ± 0.23 mm
EFS-evoked amplitude of contraction (middle jejunum [1]; O15: obestatin 15 μg/kg BW intra-stomach every 8 h, TTX 10^−6 M, EFS 5 Hz): 0.34 ± 0.11 mm
EFS-evoked amplitude of contraction (middle jejunum [1]; O15: obestatin 15 μg/kg BW intra-stomach every 8 h, TTX 10^−6 M, EFS 50 Hz): 0.61 ± 0.27 mm
effect of obestatin on EFS-evoked contraction following pre-incubation with TTX (middle jejunum [1]; TTX 10^−6 M, responses similar to saline-treated preparations): the effects of obestatin were blocked
amplitude of spontaneous contractions compared to C (middle jejunum [2]; [4]): significant increase in the amplitude of contractions was observed in C piglets in comparison to O10 and O15 groups
amplitude of spontaneous contractions compared to C (middle jejunum [2]; O15: obestatin 15 μg/kg BW intra-stomach every 8 h): significant increase in the amplitude of contractions was observed in C piglets in comparison to O10 and O15 groups
amplitude of spontaneous contractions compared to C (duodenum): significantly higher
amplitude of ACh stimulated contractions (middle jejunum [3]; O2: obestatin 2 μg/kg BW intra-stomach every 8 h, ACh^-4 (10^−4 M, cumulative)): 12.3 ± 1.0^a^b mm
amplitude of ACh stimulated contractions (middle jejunum [3]; O2: obestatin 2 μg/kg BW intra-stomach every 8 h, ACh^-5 (10^−5 M, cumulative)): 8.0 ± 0.9 mm
amplitude of ACh stimulated contractions (middle jejunum [3]; O2: obestatin 2 μg/kg BW intra-stomach every 8 h, ACh^-6 (10^−6 M, cumulative)): 6.3 ± 0.9^a^b mm
amplitude of ACh stimulated contractions (middle jejunum [3]; O2: obestatin 2 μg/kg BW intra-stomach every 8 h, ACh^-7 (10^−7 M, cumulative)): 6.1 ± 0.8 mm
amplitude of ACh stimulated contractions (middle jejunum [3]; O2: obestatin 2 μg/kg BW intra-stomach every 8 h, ACh^-8 (10^−8 M, cumulative)): 6.0 ± 0.7 mm
amplitude of atropine treated contractions (middle jejunum [3]; O2: obestatin 2 μg/kg BW intra-stomach every 8 h): 0.97 ± 0.1^a^b mm
amplitude of ACh stimulated contractions (middle jejunum [3]; O10: obestatin 10 μg/kg BW intra-stomach every 8 h, ACh^-4 (10^−4 M, cumulative)): 12.5 ± 0.9^b mm
amplitude of ACh stimulated contractions (middle jejunum [3]; O10: obestatin 10 μg/kg BW intra-stomach every 8 h, ACh^-5 (10^−5 M, cumulative)): 10.1 ± 0.7 mm
amplitude of ACh stimulated contractions (middle jejunum [3]; O10: obestatin 10 μg/kg BW intra-stomach every 8 h, ACh^-6 (10^−6 M, cumulative)): 7.0 ± 0.9^b mm
amplitude of ACh stimulated contractions (middle jejunum [3]; O10: obestatin 10 μg/kg BW intra-stomach every 8 h, ACh^-7 (10^−7 M, cumulative)): 4.8 ± 0.9 mm
amplitude of ACh stimulated contractions (middle jejunum [3]; O10: obestatin 10 μg/kg BW intra-stomach every 8 h, ACh^-8 (10^−8 M, cumulative)): 4.6 ± 0.9 mm
amplitude of ACh stimulated contractions (middle jejunum [3]; O10: obestatin 10 μg/kg BW intra-stomach every 8 h, ACh^-9 (10^−9 M, cumulative)): 3.9 ± 0.8^a^b mm
amplitude of atropine treated contractions (middle jejunum [3]; [4]): 1.10 ± 0.2^b mm
amplitude of ACh stimulated contractions (middle jejunum [3]; O15: obestatin 15 μg/kg BW intra-stomach every 8 h, ACh^-4 (10^−4 M, cumulative)): 13.7 ± 0.8^b mm
amplitude of ACh stimulated contractions (middle jejunum [3]; O15: obestatin 15 μg/kg BW intra-stomach every 8 h, ACh^-5 (10^−5 M, cumulative)): 9.0 ± 0.8 mm
amplitude of ACh stimulated contractions (middle jejunum [3]; O15: obestatin 15 μg/kg BW intra-stomach every 8 h, ACh^-6 (10^−6 M, cumulative)): 7.3 ± 0.8^b mm
amplitude of ACh stimulated contractions (middle jejunum [3]; O15: obestatin 15 μg/kg BW intra-stomach every 8 h, ACh^-7 (10^−7 M, cumulative)): 6.8 ± 0.6 mm
amplitude of ACh stimulated contractions (middle jejunum [3]; O15: obestatin 15 μg/kg BW intra-stomach every 8 h, ACh^-8 (10^−8 M, cumulative)): 6.7 ± 0.7 mm
amplitude of ACh stimulated contractions (middle jejunum [3]; O15: obestatin 15 μg/kg BW intra-stomach every 8 h, ACh^-9 (10^−9 M, cumulative)): 6.6 ± 0.7^b mm
